The first experiment deals with LNCaP/AR cells. The experiment in a line: Inhibition of the proliferation of LNCap/AR cells (CCK-8). The following applies: 144 h; LNCaP/AR cells, 6 days culture, CCK-8; read-out: LNCap/AR IC50. The experiment is classed as cell-based. The source says: 1. Biological Assay of the Inhibition on the Proliferation of LNCap/AR Cells
(1) Experimental materials and instruments: LNCaP/AR cell line and 22RV1 cell line (provided by Sichuan Kangcheng Biotechnology Co., Ltd.) Fetal bovine serum FBS (Gibco, Cat. No. 10099-141) 0.01M PBS (Biosharp, Cat. No. 162262) RIPM1640 medium (Hyclone, Cat. No. 308090.01) Penicillin-Streptomycin (Hyclone, Cat. No. SV30010) Cell counting kit-8 (Signalway Antibody, Cat. No. CP002) DMSO (Sigma, Cat. No. D5879) Centrifuge Tube, 15 ml (Excell Bio, Cat. No. CS015-0001) Cell Culture Dish, (Excell Bio, Cat. No. CS016-0128) 96-well cell culture plate (Corning, Cat. No. 3599) Microplate reader (Thermo Multiskan MK3 type)
(2) Experimental Methods:
a. Preparation of Buffer Cell culture medium: RIPM1640 medium, 10% FBS, 1% Pen Strep: PBS buffer: PBS powder was dissolved in 2 L of ultrapure water and sterilized. b. Experimental Procedures 1) LNCaP/AR cells were subcultured in cell culture media, and then the cells in good growth condition were seeded in a 96-well plate at 80 μL/well (1000 cells/well), and cultured overnight in a 37° C., 5% CO2 cell incubator. 2) The drug was prepared into a 10 mM stock solution with dimethyl sulfoxide (DMSO). Prior to use, the stock solution was diluted in a ratio of […] with DMSO, and then diluted at a 3-fold gradient to obtain 9 serial concentrations. Then, each concentration of compound was further diluted in a ratio of 1:200 with the culture medium (to ensure that the DMSO concentration in the culture system was 0.1%), and two wells were set for each concentration. 20 μL of the diluted compound solution was added to the well of the cell culture (with a final concentration of 10 μM, 3.3 μM, 1.1 μM . . . ), and then the plate was gently tapped to thoroughly mix. In addition, the experiment included 3 negative control wells only containing cells and 3 blank control wells only containing culture medium (6 wells were each added with DMSO diluted in a ratio of 1:200 with 20 μL of culture medium). c. Result Detection: 1) After culturing for 6 days, 10 μL of CCK-8 was added to each well, and the plate was further incubated for 1 h in a 37° C., 5% CO2 cell incubator. 2) The absorbance (OD value) was measured at 450 nm with a multifunctional microplate reader. 3) The data was analyzed by the Dose-response-inhibition equation in the software GraphPad Prism5, and the IC50 value was obtained. 2. Biological assay of the inhibition on the proliferation of other drug-resistant prostate cancer cells
With `CC(=O)O[C@@H]1C[C@@H](C(=O)N[C@@H](C)c2ccc(-c3scnc3C)cc2)N(C(=O)[C@@H](NC(=O)COCCCCCN(c2ccc(-n3ccnn3)c(Br)c2)c2cc(-c3c(C)noc3C)ccc2C)C(C)(C)C)C1` [Compound 20, (3R,5S)-1-((S)-2-(2-((5-((3-bromo-4-(1H-1,2,3-triazol-1-yl)phenyl)(5-(3,5-dimethylisoxazol-4-yl)-2-methylphenyl)amino)pentyl)oxy)acetamido)-3,3-dimethylbutyryl)-5-((S)-1-(4-methylthiazol-5-yl)phenyl)ethyl)carbamoyl)pyrrolidine-3-yl acetate], the IC50 was less than 100 nM.
Turning to `CC(=O)O[C@@H]1C[C@@H](C(=O)N[C@@H](C)c2ccc(-c3scnc3C)cc2)N(C(=O)[C@@H](NC(=O)COCCCCCN(c2ccc(-n3ccnc3)c(C(F)(F)F)c2)c2cc(-c3c(C)noc3C)ccc2C)C(C)(C)C)C1` [Compound 22, (3R,5S)-1-((S)-2-(2-((5-((4-(1H-imidazol-1-yl)-3-(trifluoromethyl)phenyl)(5-(3,5-dimethylisoxazol-4-yl)2-methylphenyl)amino)pentyl)oxy)acetamido)-3,3-dimethylbutyryl)-5-((S)-1-(4-methylthiazol-5-yl)phenyl)ethyl)carbamoyl)pyrrolidine-3-yl acetate], the IC50 was in the range of 501 to 2000 nM.
Still for that read-out and setting: for `Cc1ccc(-c2c(C)noc2C)cc1N(CCC1CCN(CC(=O)N[C@H](C(=O)N2C[C@H](O)C[C@H]2C(=O)N[C@@H](C)c2ccc(-c3scnc3C)cc2)C(C)(C)C)CC1)c1ccc(-n2ccnc2)c(Br)c1` [Compound 24] the value was greater than 2000 nM; for `Cc1ccc(-c2c(C)noc2C)cc1N(CCCCCOCC(=O)Nc1cccc2c1CN(C1CCC(=O)NC1=O)C2=O)c1ccc(-n2ccnc2)c(Br)c1` (centres unmarked) [Compound 25, 2-((5-((3-Bromo-4-(1H-imidazol-1-yl)phenyl)(5-(3,5-Dimethylisoxazol-4-yl)-2-methylphenyl)amino)pentyl)oxy)-N-(2-(2,6-dioxopiperidin-3-yl)-1-oxoisoindol-4-yl)acetamide], greater than 2000 nM; for `Cc1ccc(-c2c(C)noc2C)cc1N(CCCCCOCC(=O)N[C@H](C(=O)N1C[C@H](O)C[C@H]1C(=O)N[C@@H](C)c1ccc(-c2scnc2C)cc1)C(C)(C)C)c1ccc(Br)cc1` [Compound 26, (2S,4R)-1-((S)-2-(2-((5-((4-Bromophenyl)(5-(3,5-Dimethylisoxazol-4-yl)-2-methylphenyl)amino)pentyl)oxy)acetamido)-3,3-dimethylbutyryl)-4-hydroxy-N—((S)-1-(4-(4-methylthiazol-5-yl)phenyl)ethyl)pyrrolidine-2-formamide], 101 to 500 nM.
On the same count and under the same terms, then `Cc1ccc(-c2c(C)noc2C)cc1N(CCCCCOCC(=O)Nc1cccc2c1CN(C1CCC(=O)NC1=O)C2=O)c1ccc(Br)cc1` (centres unmarked) [Compound 27, 2-((5-((4-Bromophenyl)(5-(3,5-Dimethylisoxazol-4-yl)-2-methylphenyl)amino)pentyl)oxy)-N-(2-(2,6-dioxopiperidin-3-yl)-1-oxoisoindolin-4-yl)acetamide], with 501 to 2000 nM.
Regarding `Cc1ccc(-c2c(C)noc2C)cc1N(CCC1CCN(c2ccc3c(c2)C(=O)N(C2CCC(=O)NC2=O)C3=O)CC1)c1ccc(C2(C#N)CC2)cc1` (centres unmarked) [Compound 28, 1-(4-((5-(3,5-Dimethylisoxazol-4-yl)-2-methylphenyl)(2-(1-(2-(2,6-dioxopiperidin-3-yl)-1,3-dioxoisoindolin-5-yl)piperidin-4-yl)ethyl)amino)phenyl)cyclopropane-1-carbonitrile], the IC50 lay in the range of 101 to 500 nM.
For the compound `Cc1ccc(-c2c(C)noc2C)cc1N(CCC1CCN(c2cc3c(cc2F)C(=O)N(C2CCC(=O)NC2=O)C3=O)CC1)c1ccc(C2(C#N)CC2)cc1` (centres unmarked) [Compound 29, 1-(4-((5-(3,5-Dimethylisoxazol-4-yl)-2-methylphenyl)(2-(1-(2-(2,6-dioxopiperidin-3-yl)-6-fluoro-1,3-dioxoisoindolin-5-yl)piperidin-4-yl)ethyl)amino)phenyl)cyclopropane-1-carbonitrile], the IC50 was greater than 2000 nM.
Regarding `Cc1ccc(-c2c(C)noc2C)cc1N(CCCC1CCN(c2ccc3c(c2)C(=O)N(C2CCC(=O)NC2=O)C3=O)CC1)c1ccc(C2(C#N)CC2)cc1` (centres unmarked) [Compound 30, 1-(4-((5-(3,5-Dimethylisoxazol-4-yl)-2-methylphenyl)(3-(1-(2-(2,6-dioxopiperidin-3-yl)-1,3-dioxoisoindolin-5-yl)piperidin-4-yl)propyl)amino)phenyl)cyclopropane-1-nitrile], the IC50 lay in the range of 101 to 500 nM.
As for `Cc1ccc(-c2c(C)noc2C)cc1N(CCCCCNc1ccc2c(c1)CN(C1CCC(=O)NC1=O)C2=O)c1ccc(-c2c(C)noc2C)cc1` (centres unmarked) [Compound 33, 3-(5-((5-((5-(3,5-Dimethylisoxazol-4-yl)-2-methylphenyl) (4-(3,5-dimethylisoxazol-4-yl)phenyl)amino)pentyl)amino)-1-oxoisoindolin-2-yl)piperidine-2,6-dione], the IC50 is 101 to 500 nM.
On to `CC(=O)O[C@@H]1C[C@@H](C(=O)N[C@@H](C)c2ccc(-c3scnc3C)cc2)N(C(=O)[C@@H](NC(=O)CN2CCN(CCN(c3ccc(-n4ccnc4)c(Br)c3)c3cc(-c4c(C)noc4C)ccc3C)CC2)C(C)(C)C)C1` [Compound 47, (3R,5S)-1-((S)-2-(2-(4-(2-((3-bromo-4-(1H-imidazol-1-yl)phenyl)(5-(3,5-dimethylisoxazol-4-yl)-2-methylphenyl)amino)ethyl)piperazin-1-yl)acetamido)-3,3-dimethylbutanol)-5-((S)-1-(4-methylthiazol-5-yl)phenyl)ethyl)carbamoyl)pyrrolidine-3-yl acetate], for which the IC50 lay in the range of 501 to 2000 nM.

The same experiment, now with this note: LNCaP/AR cells, 6 days culture, CCK-8; read-out: LNCap/AR IC50.
Turning to `CC(=O)O[C@@H]1C[C@@H](C(=O)N[C@@H](C)c2ccc(-c3scnc3C)cc2)N(C(=O)[C@@H](NC(=O)CN2CCC(CCN(c3ccc(-n4ccnc4)c(Br)c3)c3cc(-c4c(C)noc4C)ccc3C)CC2)C(C)(C)C)C1` [Compound 23, (3R,5S)-1-((S)-2-(2-(4-(2-((3-Bromo-4-(1H-imidazol-1-yl)phenyl)(5-(3,5-dimethylisoxazol-4-yl)-2-methylphenyl)amino)ethyl)piperidin-1-yl)acetamido)-3,3-dimethylbutanol)-5-((S)-1-(4-methylthiazol-5-yl)phenyl)ethyl)carbamoyl)pyrrolidine-3-yl acetate], the IC50 was greater than 2000 nM.

Still in this experiment, the particulars now being: LNCaP/AR, 144 h, read-out: LNCap/AR IC50.
Turning to `Cc1ccc(-c2c(C)noc2C)cc1N(CCCCCOCC(=O)N[C@H](C(=O)N1C[C@H](O)C[C@H]1C(=O)N[C@@H](C)c1ccc(-c2scnc2C)cc1)C(C)(C)C)c1ccc(-n2ccnc2)c(C(F)(F)F)c1` [Compound 21, (2S,4R)-1-((S)-2-(2-((5-((4-(1H-imidazol-1-yl)-3-(trifluoromethyl)phenyl)(5-(3,5-dimethylisoxazol-4-yl)-2-methylphenyl)amino)pentyl)oxy)acetamido)-3,3-dimethylbutyryl)-4-hydroxy-N—((S)-1-(4-(4-methylthiazol-5-yl)phenyl)ethyl)pyrrolidine-2-carboxamide], the IC50 fell in the range of 501 to 2000 nM.
Consider `CC(=O)O[C@@H]1C[C@@H](C(=O)N[C@@H](C)c2ccc(-c3scnc3C)cc2)N(C(=O)[C@@H](NC(=O)COCC#CCN(c2ccc(-n3ccnc3)cc2)c2cc(-c3c(C)noc3C)ccc2C)C(C)(C)C)C1` [Compound 46, (3R,5S)-1-((S)-2-(2-((4-((4-(1H-imidazol-1-yl)phenyl)(5-(3,5-dimethylisoxazol-4-yl)-2-methylphenyl)amino)but-2-yn-1-yl)oxy)acetamido)-3,3-dimethylbutanol)-5-((S)-1-(4-methylthiazol-5-yl)phenyl)ethyl)carbamoyl)pyrrolidine-3-yl acetate], for which the IC50 was greater than 2000 nM.

Source of the values: patent US20220257774A1, “AROMATIC AMINE AR AHD BET TARGETING PROTEIN DEGRADATION CHIMERA COMPOUND AND USE” (HINOVA PHARMACEUTICALS INC., priority 2019, published 2022).
